Test results as given in patent US20240116856A1 (Young BioPharma, LLC, priority 2020, published 2024).
Entries after “also recorded” stand apart in the source; their conditions may differ. Where two headings read alike, the source gives them in different places.

How the values were obtained:
human TRPV1 = target: T1, human TRPV1 (Homo sapiens, UniProt Q8NER1); test: In vitro Ca2+ flux assay in human TRPV1 transfected HEK 293 cells; format: cell-based; conditions: read-out: TRPV1 EC50
T1 construct: DYK (FLAG) tag from vector pcDNA3.1+/C-(K)DYK (C); host or cells: FreeStyle 293-F cells (HEK 293), transient transfection
T1 sequence (Q8NER1 whole entry): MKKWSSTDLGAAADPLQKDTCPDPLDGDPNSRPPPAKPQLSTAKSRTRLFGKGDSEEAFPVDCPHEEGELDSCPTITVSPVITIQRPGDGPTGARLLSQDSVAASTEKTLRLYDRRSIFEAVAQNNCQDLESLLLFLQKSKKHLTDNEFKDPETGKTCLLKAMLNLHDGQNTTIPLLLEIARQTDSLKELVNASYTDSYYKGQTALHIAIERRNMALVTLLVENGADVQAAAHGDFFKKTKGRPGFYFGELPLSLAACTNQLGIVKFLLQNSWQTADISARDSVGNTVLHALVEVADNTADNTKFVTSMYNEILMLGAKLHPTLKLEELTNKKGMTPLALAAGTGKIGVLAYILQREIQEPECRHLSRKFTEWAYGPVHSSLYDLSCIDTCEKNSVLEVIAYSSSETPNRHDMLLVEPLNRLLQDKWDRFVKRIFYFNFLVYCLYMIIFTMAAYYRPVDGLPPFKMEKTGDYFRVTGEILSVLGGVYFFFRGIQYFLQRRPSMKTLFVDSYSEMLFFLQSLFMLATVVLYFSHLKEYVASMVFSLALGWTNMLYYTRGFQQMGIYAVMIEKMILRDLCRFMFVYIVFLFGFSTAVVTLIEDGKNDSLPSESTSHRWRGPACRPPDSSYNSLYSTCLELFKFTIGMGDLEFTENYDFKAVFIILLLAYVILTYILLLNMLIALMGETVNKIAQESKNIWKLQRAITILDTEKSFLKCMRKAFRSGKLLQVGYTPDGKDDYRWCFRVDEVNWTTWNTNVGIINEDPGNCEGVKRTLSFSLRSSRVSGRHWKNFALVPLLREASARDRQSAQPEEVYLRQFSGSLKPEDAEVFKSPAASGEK

human TRPV3 = target: T2, human TRPV3 (Homo sapiens, UniProt Q8NET8); test: In vitro Ca2+ flux counter-screen in human TRPV3 overexpressing cells; format: cell-based; conditions: counter-screen; read-out: TRPV3 EC50
T2 construct: expressed in transfected cells; host or cells: overexpressing cells
T2 sequence (Q8NET8 1-790): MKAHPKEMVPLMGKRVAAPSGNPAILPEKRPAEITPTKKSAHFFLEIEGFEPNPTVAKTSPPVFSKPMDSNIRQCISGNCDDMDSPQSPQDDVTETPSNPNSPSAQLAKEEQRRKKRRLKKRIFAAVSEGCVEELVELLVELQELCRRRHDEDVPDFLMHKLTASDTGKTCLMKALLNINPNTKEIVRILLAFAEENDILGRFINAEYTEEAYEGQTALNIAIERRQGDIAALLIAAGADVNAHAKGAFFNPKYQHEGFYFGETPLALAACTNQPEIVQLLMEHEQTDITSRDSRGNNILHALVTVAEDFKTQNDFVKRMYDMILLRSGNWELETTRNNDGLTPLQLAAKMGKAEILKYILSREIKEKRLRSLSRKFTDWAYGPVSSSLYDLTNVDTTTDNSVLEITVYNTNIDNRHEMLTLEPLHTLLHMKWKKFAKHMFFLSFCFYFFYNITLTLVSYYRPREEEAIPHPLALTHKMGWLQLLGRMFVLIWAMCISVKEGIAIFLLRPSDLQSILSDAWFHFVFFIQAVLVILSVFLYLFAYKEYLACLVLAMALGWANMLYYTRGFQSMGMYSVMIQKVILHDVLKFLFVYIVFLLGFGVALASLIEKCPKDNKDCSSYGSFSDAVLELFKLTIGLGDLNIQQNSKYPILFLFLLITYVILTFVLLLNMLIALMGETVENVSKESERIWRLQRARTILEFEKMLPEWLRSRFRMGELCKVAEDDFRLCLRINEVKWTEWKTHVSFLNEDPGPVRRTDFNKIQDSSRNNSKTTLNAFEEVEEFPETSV

human TRPA1 = target: T3, human TRPA1 (Homo sapiens, UniProt O75762); test: In vitro Ca2+ flux counter-screen in human TRPA1 overexpressing cells; format: cell-based; conditions: counter-screen; read-out: TRPA1 EC50
T3 construct: expressed in transfected cells; host or cells: overexpressing cells
T3 sequence (O75762 whole entry): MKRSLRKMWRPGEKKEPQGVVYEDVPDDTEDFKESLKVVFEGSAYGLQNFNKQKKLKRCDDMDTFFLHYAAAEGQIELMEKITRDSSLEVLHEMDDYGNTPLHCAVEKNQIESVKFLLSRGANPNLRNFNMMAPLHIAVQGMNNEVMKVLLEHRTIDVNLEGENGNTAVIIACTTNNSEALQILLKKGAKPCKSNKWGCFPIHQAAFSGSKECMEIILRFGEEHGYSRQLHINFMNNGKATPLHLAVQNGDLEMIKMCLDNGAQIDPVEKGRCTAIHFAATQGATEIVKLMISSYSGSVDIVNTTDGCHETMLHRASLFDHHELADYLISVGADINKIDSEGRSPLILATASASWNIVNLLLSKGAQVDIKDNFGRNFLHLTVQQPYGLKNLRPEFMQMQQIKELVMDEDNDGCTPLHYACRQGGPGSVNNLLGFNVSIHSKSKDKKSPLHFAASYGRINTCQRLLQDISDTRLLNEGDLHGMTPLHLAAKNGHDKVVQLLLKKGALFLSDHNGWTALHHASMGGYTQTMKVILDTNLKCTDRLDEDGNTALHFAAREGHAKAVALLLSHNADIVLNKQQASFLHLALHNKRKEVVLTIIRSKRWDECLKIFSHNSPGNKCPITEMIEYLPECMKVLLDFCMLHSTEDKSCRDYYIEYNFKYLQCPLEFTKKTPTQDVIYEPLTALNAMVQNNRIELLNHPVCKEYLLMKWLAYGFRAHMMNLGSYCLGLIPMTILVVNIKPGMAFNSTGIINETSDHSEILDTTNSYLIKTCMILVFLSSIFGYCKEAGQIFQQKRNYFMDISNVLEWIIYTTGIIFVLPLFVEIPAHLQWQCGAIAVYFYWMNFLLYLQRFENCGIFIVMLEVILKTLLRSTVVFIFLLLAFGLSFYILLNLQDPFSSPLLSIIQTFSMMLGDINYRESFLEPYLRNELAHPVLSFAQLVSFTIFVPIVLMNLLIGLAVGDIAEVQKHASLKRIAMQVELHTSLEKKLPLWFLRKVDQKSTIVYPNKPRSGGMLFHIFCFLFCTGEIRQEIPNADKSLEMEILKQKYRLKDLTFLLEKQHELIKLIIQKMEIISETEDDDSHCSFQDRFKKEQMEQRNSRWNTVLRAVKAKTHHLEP

[1] = Mouse liver microsome stability; format: in vitro ADME; conditions: liver microsomes, C57BL6 mouse liver microsome
In vivo mouse PK = conditions: IV 0.4 mg/kg, C57BL6 mouse
MDA-MB-231 = test: Human cancer cell growth inhibition assay (ATP assay), MDA-MB-231; format: cell-based; conditions: Homo sapiens, MDA-MB-231, 96 h; 4 days; Means±SEM from three independent experiments; read-out: MDA-MB-231, IC50
NCI-H460 = test: Human cancer cell growth inhibition assay (ATP assay), NCI-H460; format: cell-based; conditions: Homo sapiens, NCI-H460, 96 h; 4 days; Means±SEM from three independent experiments; read-out: NCl-H460, IC50
OVCAR-8 = test: Human cancer cell growth inhibition assay (ATP assay), OVCAR-8; format: cell-based; conditions: Homo sapiens, OVCAR-8, 96 h; 4 days; Means±SEM from three independent experiments; read-out: OVCAR-8, IC50
MDA-MB-231 cell invasion = test: Cancer cell invasion assay, MDA-MB-231; format: cell-based, human; conditions: 24 h
Protocol: A cancer cell invasion assay was developed based on literature protocols (Methods 2005, 37, 208; EMBO J 2002, 21, 6289; Cellular Signalling 2012, 24, 1276.). Membrane matrix gel (Cat #A1413201, ThermoFisher) was diluted in ice-cold, serum-free RPMI 1640 Medium (Cat #31800022, ThermoFisher) at a concentration of 0.5-0.6 mg/mL. Then it was added to the upper compartment (100 μL per cup) of millicell inserts (Cat #PI8P01250, ThermoFisher) placed in a 24-well plate (Part no. 229123, Celltreat). The plate was incubated at 37° C. for 2 h to allow the liquid gel to solidify. RPMI 1640 Medium supplemented with 10% FBS (300 μL) was added to the well of the plate (lower compartment) as attractant, then DMSO or compounds were added. Human cancer cells (1×10^5 cells in 200 μL of RPMI 1640 Medium) were added to the upper compartment of the insert, then DMSO or compounds were added. After the plate was incubated at 37° C. for 24 h, the cells were fixed on the lower side of the insert membrane with 4% formaldehyde and stained with 1% crystal violet (Part no. IS12146, Innovating Science). The invaded cells on the lower side of the filter were counted under an inverted microscope equipped with either a 4× or a 10× objective (FIG. 11). The cell numbers from 5 random views were averaged and plotted as percentage against the DMSO control (FIG. 12A).

[2] = both, mouse, in vivo, 1 min
[3] = set-up: decrease in the second phase of the formalin test: dose or concentration left out as unconfirmed; conditions: intraplantar
TRPV1 = target: T4, TRPV1 (Mus musculus, UniProt Q704Y3); test: Ca2+ imaging of primary mouse dorsal root ganglion (DRG) neurons, TRPV1 desensitization; format: cell-based; conditions: then capsaicin 0.5 μM
T4 construct: DRG was isolated from male and female mice expressing GCaMP6f in neurons; endogenous in cells; host or cells: dissociated primary DRG neurons from GCaMP6f-expressing mice
T4 sequence (Q704Y3 whole entry): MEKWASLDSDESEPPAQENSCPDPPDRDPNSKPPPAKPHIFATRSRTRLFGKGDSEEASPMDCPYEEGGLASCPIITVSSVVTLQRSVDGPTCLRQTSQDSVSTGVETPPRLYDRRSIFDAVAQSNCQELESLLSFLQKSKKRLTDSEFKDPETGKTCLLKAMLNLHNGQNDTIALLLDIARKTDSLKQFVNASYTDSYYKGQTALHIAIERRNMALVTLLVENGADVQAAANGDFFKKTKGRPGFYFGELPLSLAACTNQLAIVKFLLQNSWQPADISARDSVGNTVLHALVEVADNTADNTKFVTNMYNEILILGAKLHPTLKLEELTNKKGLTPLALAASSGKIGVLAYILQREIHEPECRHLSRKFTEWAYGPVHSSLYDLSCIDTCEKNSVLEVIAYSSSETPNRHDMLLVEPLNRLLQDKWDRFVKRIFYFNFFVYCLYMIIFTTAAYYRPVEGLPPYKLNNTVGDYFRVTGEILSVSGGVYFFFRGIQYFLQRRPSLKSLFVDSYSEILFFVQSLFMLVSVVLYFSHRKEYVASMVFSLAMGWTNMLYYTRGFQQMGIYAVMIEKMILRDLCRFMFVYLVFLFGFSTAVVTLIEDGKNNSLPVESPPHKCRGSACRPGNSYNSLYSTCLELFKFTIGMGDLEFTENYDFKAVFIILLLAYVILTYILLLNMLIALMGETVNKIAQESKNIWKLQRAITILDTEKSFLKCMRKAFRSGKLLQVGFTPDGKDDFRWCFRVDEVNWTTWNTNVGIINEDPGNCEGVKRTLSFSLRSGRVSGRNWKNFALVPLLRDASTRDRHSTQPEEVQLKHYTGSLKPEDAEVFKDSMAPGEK

[4] = Operant Pain Tolerance Assay; format: in vivo; conditions: intraplantar
Protocol: Model 3—The ability of YB-16 to increase pain tolerance was tested using a newly published Operant Pain Tolerance Assay (eNeuro 2020, 7, ENEURO.0210-19.2020). In the assay, mice were trained to seek a sucrose reward that was on a hot 42° C. plate (versus no reward on a neutral 30° C. plate). It was noticed that intraplantar YB-16 treated mice with paw inflammatory injury [induced by Complete Freund's adjuvant (CFA) 24 hrs prior to treatment] trended to spend 145% more time on the hot side of the assay but not necessarily additional time near the sucrose bottle compared to vehicle treated mice (FIG. 10B).

[5] = SubQ 6 mg/kg
[6] = Means±SEM from three independent experiments
[7] = first treatment capsaicin 0.5 μM, YB-11 0.5 μM or YB-16 1.0 μM, paired t-test

COc1cc(CNC(=O)CCCC/C=C/C(C)C)ccc1N [YB-2]
EC50 (human TRPV1; [6]): < 0.1 µM | EC50 (human TRPV1; Table 3 comparison, YB-2 tested as a HCl salt): 0.082 µM | EC50 (human TRPV3): > 10 µM | EC50 (human TRPA1): > 10 µM | CLint scaled at 2 μM [1]: 1780 mL/min/kg | λz (In vivo mouse PK): 4.1 h⁻¹ | IC50 (MDA-MB-231): 342 ± 30 µM | IC50 (NCI-H460): 350 ± 25 µM | IC50 (OVCAR-8): 200 ± 22 µM | inhibition of MDA-MB-231 cell invasion (MDA-MB-231 cell invasion): dose-dependently inhibited | MPP [2]: 0.233 mg/mL | animal death and sedation in formalin test [3]: No mice treated with YB-16, YB-11 or YB-2 died or experienced sedative reaction | effect in the second phase of the formalin test ([3]; 2 hr prior to formalin): significant analgesic effect in the second phase for male mice only | effect on formalin spontaneous pain-like behavior ([3]; 2 hr prior to formalin): did not reduce formalin behavior at any dose tested

COCCOCCOCCC(=O)Oc1ccc(CC(=O)N/C=C/c2ccc(C(F)(F)F)cc2)cc1OC [YB-16]
EC50 (human TRPV1; [6]): 0.93 µM | EC50 (human TRPV3): > 10 µM | EC50 (human TRPA1): > 10 µM | TRPV1-sensitive neurons showing desensitization (TRPV1; first treatment 1.0 μM): 79% | area under the curve of the Ca2+ signal of the second (capsaicin) application (TRPV1; [7]): statistically significant reduction; also recorded: significantly reduced | max Ca2+ signal of the second (capsaicin) application (TRPV1; [7]): statistically significant reduction; also recorded: significantly reduced | sedation in operant pain tolerance assay [4]: inflammatory injury with no sedation | sensitivity to hot plate after inflammatory injury ([4]; paw inflammatory injury (CFA)): trended to reduce sensitivity to hot plate after inflammatory injury compared to vehicle; also recorded: trended to increase time in a 42 °C chamber; also recorded: Trend for reduced sensitivity to hot | IC50 (MDA-MB-231): > 100 µM | IC50 (NCI-H460): > 100 µM | IC50 (OVCAR-8): 16 µM | MPP [2]: 0.302 mg/mL | animal death and sedation in formalin test [3]: No mice treated with YB-16, YB-11 or YB-2 died or experienced sedative reaction | decrease in the second phase of the formalin test ([3]; 2 hr prior to formalin): 54% | reduction of formalin first phase behavior ([3]; 2 hr prior to formalin): 60% | MPE (maximum possible effect) increase compared to vehicle [5]: 270%
